Converted amounts (≈) assume the structure as drawn.
How the values were obtained:
Format in all cases: functional
Escherichia coli = test: Antibacterial activity against Escherichia coli ATCC 25922 after 16 to 20 hrs
[1] = test system: Mycolicibacterium smegmatis; test: Antimycobacterial activity against Mycobacterium smegmatis ATCC MC2155 after 7 days under normoxic condition by microplate Alamar blue assay; conditions: str. MC2 155, 168 h
[2] = test system: Mycobacterium tuberculosis; test: microbe, parasite or virus in culture; conditions: H37Rv ATCC 27294, 168 h
Description: Antitubercular activity against Mycobacterium tuberculosis H37Rv ATCC 27294 after 7 days under normoxic condition by microplate Alamar blue assay

Candida albicans = test: Antifungal activity against Candida albicans ATCC 90028 after 36 to 48 hrs
Staphylococcus aureus = test: Antibacterial activity against Staphylococcus aureus ATCC 29213 after 16 to 20 hrs
[3] = test system: Mycobacterium tuberculosis; test: Antitubercular activity against Mycobacterium tuberculosis H37Rv ATCC 27294 treated for 10 days under hypoxic condition followed by 28 hrs of normoxic recovery
Mycobacteroides chelonae = test: Antimycobacterial activity against Mycobacterium chelonae ATCC 35752 after 7 days under normoxic condition by microplate Alamar blue assay; conditions: ATCC 35752, 168 h
Mycobacterium avium = test: Antimycobacterial activity against Mycobacterium avium ATCC 15769 after 7 days under normoxic condition by microplate Alamar blue assay; conditions: ATCC 15769, 168 h
Mycobacterium marinum = test: Antimycobacterial activity against Mycobacterium marinum ATCC 927 after 7 days under normoxic condition by microplate Alamar blue assay; conditions: ATCC 927, 168 h
Mycobacterium kansasii = test: Antimycobacterial activity against Mycobacterium kansasii ATCC 12478 after 7 days under normoxic condition by microplate Alamar blue assay; conditions: ATCC 12478, 168 h
[4] = test system: Mycobacteroides abscessus; test: Antimycobacterial activity against Mycobacterium abscessus ATCC 19977 after 7 days under normoxic condition by microplate Alamar blue assay; conditions: ATCC 19977, 168 h

SMILES	MIC90 (Escherichia coli)	MIC90 [1]	MIC90 [2]	MIC90 (Candida albicans)	MIC90 (Staphylococcus aureus)	MIC90 [3]	MIC90 (Mycobacteroides chelonae)	MIC90 (Mycobacterium avium)	MIC90 (Mycobacterium marinum)	MIC90 (Mycobacterium kansasii)	MIC90 [4]
O=C(/C=C/c1ccc([N+](=O)[O-])o1)c1ccc(Br)cc1	> 10 µM	7.12 µM (≈ 2.29 µg/mL)	2.5 µM (≈ 0.805 µg/mL)	4.93 µM (≈ 1.59 µg/mL)	0.36 µM (≈ 0.116 µg/mL)	6.76 µM (≈ 2.18 µg/mL)					
O=C(/C=C/c1ccc([N+](=O)[O-])o1)c1ccc(N2CCCCC2)cc1	> 10 µM	> 10 µM	3.42 µM (≈ 1.12 µg/mL)	> 10 µM	> 10 µM	10.9 µM (≈ 3.56 µg/mL)					
COc1ccc(/C=C/C(=O)c2ccc(-c3ccccc3)cc2)cc1	> 10 µM	> 10 µM	> 10 µM	> 10 µM	1.18 µM (≈ 0.371 µg/mL)	> 10 µM	> 10 µM	> 10 µM	> 10 µM	> 10 µM	> 10 µM
CN(C)c1ccc(/C=C/C(=O)c2ccc(-c3ccccc3)cc2)cc1	> 10 µM	> 10 µM	> 10 µM	> 10 µM	> 10 µM	> 10 µM	> 10 µM	> 10 µM	> 10 µM	> 10 µM	> 10 µM
O=C(/C=C/c1ccc([N+](=O)[O-])o1)c1ccc(N2CCCC2)cc1	> 10 µM	> 10 µM	> 10 µM	> 10 µM	> 10 µM	4.3 µM (≈ 1.34 µg/mL)	> 10 µM	> 10 µM	> 10 µM	0.39 µM (≈ 0.122 µg/mL)	> 10 µM
Cc1ccc(C(=O)/C=C/c2ccc([N+](=O)[O-])s2)cc1	> 10 µM	> 10 µM	1.87 µM (≈ 0.511 µg/mL)	> 10 µM	> 10 µM	2.05 µM (≈ 0.56 µg/mL)	> 10 µM	2.3 µM (≈ 0.629 µg/mL)	> 10 µM	1.54 µM (≈ 0.421 µg/mL)	> 10 µM
O=C(/C=C/c1ccc([N+](=O)[O-])s1)c1ccc(C2CCCCC2)cc1	> 10 µM	> 10 µM	> 10 µM	> 10 µM	> 10 µM	5.75 µM (≈ 1.96 µg/mL)	> 10 µM	5.99 µM (≈ 2.05 µg/mL)	> 10 µM	9.26 µM (≈ 3.16 µg/mL)	> 10 µM
O=C(/C=C/c1ccc([N+](=O)[O-])s1)c1ccc(N2CCOCC2)cc1	> 10 µM	> 10 µM	> 10 µM	> 10 µM	> 10 µM	> 10 µM	> 10 µM	> 10 µM	> 10 µM	8.27 µM (≈ 2.85 µg/mL)	> 10 µM
O=C(/C=C/c1cccc([N+](=O)[O-])c1)c1ccc(N2CCCCC2)cc1	> 10 µM	> 10 µM	> 10 µM	> 10 µM	> 10 µM	> 10 µM	> 10 µM	> 10 µM	> 10 µM	> 10 µM	> 10 µM
O=C(/C=C/c1ccc(Cl)s1)c1ccc(-n2ccnc2)cc1	> 10 µM	> 10 µM	9.29 µM (≈ 2.92 µg/mL)	> 10 µM	> 10 µM	9.75 µM (≈ 3.07 µg/mL)	> 10 µM	> 10 µM	> 10 µM	9.17 µM (≈ 2.89 µg/mL)	> 10 µM
C[C@@H]1[C@H](O)[C@@H](C)/C=C/C=C/C=C/C=C/C=C/C=C/C=C/[C@H](O[C@@H]2O[C@H](C)[C@@H](O)[C@H](N)[C@@H]2O)C[C@@H]2O[C@](O)(C[C@@H](O)C[C@@H](O)[C@H](O)CC[C@@H](O)C[C@@H](O)CC(=O)O[C@H]1C)C[C@H](O)[C@H]2C(=O)O [AMPHOTERICIN B]				< 0.004 µM							
CC1(C)S[C@@H]2[C@H](NC(=O)[C@H](N)c3ccccc3)C(=O)N2[C@H]1C(=O)O [AMPICILLIN]	1.18 µM (≈ 0.412 µg/mL)				0.25 µM (≈ 0.0874 µg/mL)						
NNC(=O)c1ccncc1 [ISONIAZID]		> 10 µM	0.41 µM (≈ 0.0562 µg/mL)			> 256 µM					

From ChEMBL document CHEMBL4118066, “QSAR-driven design, synthesis and discovery of potent chalcone derivatives with antitubercular activity” (Eur J Med Chem, 2017)
